Reference: patent US11834434B2, “Substituted 2-heteroaryloxypyridines and salts thereof and their use as herbicidal agents” (Bayer Aktiengesellschaft, priority 2018, dated 2023)

What was measured:
Type in all cases: in vivo
[1] = system: Echinochloa crus-galli (ECHCG); assay: Post-emergence herbicidal action against Echinochloa crus-galli; settings: 1280 g/ha; rated visually after about 3 weeks vs untreated controls; 100% = plants have died, 0% = like control plants
Experimental: (§1) Seeds of mono- and dicotyledonous weed plants were placed in plastic pots in sandy loam soil (doubly sown with in each case one species of mono- or dicotyledonous weed plants per pot), covered with soil and cultivated in a greenhouse under controlled growth conditions. 2 to 3 weeks after sowing, the test plants were treated at the one-leaf stage. The compounds of the invention, formulated in the form of wettable powders (WP) or as emulsion concentrates (EC), were applied onto the green parts of the plants as aqueous suspension or emulsion with addition of 0.5% additive at a water application rate of 600 liters per hectare (converted). After the test plants had been kept in the greenhouse under optimum growth conditions for about 3 weeks, the activity of the preparations was rated visually in comparison to untreated controls. For example, 100% activity=the plants have died, 0% activity=like control plants. Tables B1 to B8 below show the effects of selected compounds of the general formula (I) according to Table 1 on various harmful plants and an application rate corresponding to 1280 g/ha, which were obtained by the experimental procedure mentioned above.

Poa annua (POAAN) [2] = assay: Post-emergence herbicidal action against Poa annua; settings: 1280 g/ha; rated visually after about 3 weeks vs untreated controls; 100% = plants have died, 0% = like control plants
Experimental: as §1

[3] = system: Abutilon theophrasti (ABUTH); assay: Post-emergence herbicidal action against Abutilon theophrasti; settings: 1280 g/ha; rated visually after about 3 weeks vs untreated controls; 100% = plants have died, 0% = like control plants
Experimental: as §1

[4] = system: Echinochloa crus-galli (ECHCG); assay: Pre-emergence herbicidal action against Echinochloa crus-galli; settings: 1280 g/ha; scored visually after about 3 weeks vs untreated controls; 100% = plants have died, 0% = like control plants
Description: (§2) Seeds of mono- and dicotyledonous weed plants were placed in plastic pots in sandy loam soil (doubly sown with in each case one species of mono- or dicotyledonous weed plants per pot) and covered with soil. The compounds of the invention, formulated in the form of wettable powders (WP) or as emulsion concentrates (EC), were then applied onto the surface of the covering soil as aqueous suspension or emulsion with addition of 0.5% additive at a water application rate of 600 liters per hectare (converted). After the treatment, the pots were placed in a greenhouse and kept under good growth conditions for the test plants. After about 3 weeks, the effect of the preparations was scored visually in comparison with untreated controls as percentages. For example, 100% activity=the plants have died, 0% activity=like control plants. Tables C1 to C8 below show the effects of selected compounds of the general formula (I) according to Table 1 on various harmful plants and an application rate corresponding to 1280 g/ha, which were obtained by the experimental procedure mentioned above.

Lolium rigidum (LOLRI) = assay: Pre-emergence herbicidal action against Lolium rigidum; settings: 1280 g/ha; scored visually after about 3 weeks vs untreated controls; 100% = plants have died, 0% = like control plants
Description: as §2

Poa annua (POAAN) [5] = assay: Pre-emergence herbicidal action against Poa annua; settings: 1280 g/ha; scored visually after about 3 weeks vs untreated controls; 100% = plants have died, 0% = like control plants
Description: as §2

Setaria viridis (SETVI) = assay: Pre-emergence herbicidal action against Setaria viridis; settings: 1280 g/ha; scored visually after about 3 weeks vs untreated controls; 100% = plants have died, 0% = like control plants
Description: as §2

[6] = system: Abutilon theophrasti (ABUTH); assay: Pre-emergence herbicidal action against Abutilon theophrasti; settings: 1280 g/ha; scored visually after about 3 weeks vs untreated controls; 100% = plants have died, 0% = like control plants
Description: as §2

[7] = system: Amaranthus retroflexus (AMARE); assay: Pre-emergence herbicidal action against Amaranthus retroflexus; settings: 1280 g/ha; scored visually after about 3 weeks vs untreated controls; 100% = plants have died, 0% = like control plants
Description: as §2

[8] = system: Matricaria inodora (MATIN); assay: Pre-emergence herbicidal action against Matricaria inodora; settings: 1280 g/ha; scored visually after about 3 weeks vs untreated controls; 100% = plants have died, 0% = like control plants
Description: as §2

Stellaria media (STEME) [9] = assay: Pre-emergence herbicidal action against Stellaria media; settings: 1280 g/ha; scored visually after about 3 weeks vs untreated controls; 100% = plants have died, 0% = like control plants
Description: as §2

[10] = system: Amaranthus retroflexus (AMARE); assay: Post-emergence herbicidal action against Amaranthus retroflexus; settings: 1280 g/ha; rated visually after about 3 weeks vs untreated controls; 100% = plants have died, 0% = like control plants
Experimental: as §1

Stellaria media (STEME) [11] = assay: Post-emergence herbicidal action against Stellaria media; settings: 1280 g/ha; rated visually after about 3 weeks vs untreated controls; 100% = plants have died, 0% = like control plants
Experimental: as §1

[12] = system: Matricaria inodora (MATIN); assay: Post-emergence herbicidal action against Matricaria inodora; settings: 1280 g/ha; rated visually after about 3 weeks vs untreated controls; 100% = plants have died, 0% = like control plants; column head prints STEME
Experimental: as §1

Cc1ccnc(Oc2ncccn2)c1Sc1ccc(F)cc1F [Example I-210]
Post-emergence action against Echinochloa crus-galli (ECHCG) [1]: 90% | Post-emergence action against Poa annua (POAAN) (Poa annua (POAAN) [2]): 100% | Post-emergence action against Abutilon theophrasti (ABUTH) [3]: 90% | Pre-emergence action against Echinochloa crus-galli (ECHCG) [4]: 100% | Pre-emergence action against Lolium rigidum (LOLRI) (Lolium rigidum (LOLRI)): 100% | Pre-emergence action against Poa annua (POAAN) (Poa annua (POAAN) [5]): 100% | Pre-emergence action against Setaria viridis (SETVI) (Setaria viridis (SETVI)): 100% | Pre-emergence action against Abutilon theophrasti (ABUTH) [6]: 100% | Pre-emergence action against Amaranthus retroflexus (AMARE) [7]: 100% | Pre-emergence action against Matricaria inodora (MATIN) [8]: 100% | Pre-emergence action against Stellaria media (STEME) (Stellaria media (STEME) [9]): 100%

Cc1ccnc(Oc2ncccn2)c1Sc1ccccc1 [Example I-216, 2-[(4-Methyl-3-phenylsulfanyl-2-pyridyl)oxy]pyrimidine]
Post-emergence action against Echinochloa crus-galli (ECHCG) [1]: 100% | Post-emergence action against Poa annua (POAAN) (Poa annua (POAAN) [2]): 100% | Post-emergence action against Abutilon theophrasti (ABUTH) [3]: 100% | Post-emergence action against Amaranthus retroflexus (AMARE) [10]: 100% | Post-emergence action against Stellaria media (STEME) (Stellaria media (STEME) [11]): 100% | Pre-emergence action against Echinochloa crus-galli (ECHCG) [4]: 100% | Pre-emergence action against Lolium rigidum (LOLRI) (Lolium rigidum (LOLRI)): 90% | Pre-emergence action against Poa annua (POAAN) (Poa annua (POAAN) [5]): 100% | Pre-emergence action against Setaria viridis (SETVI) (Setaria viridis (SETVI)): 100% | Pre-emergence action against Abutilon theophrasti (ABUTH) [6]: 100% | Pre-emergence action against Amaranthus retroflexus (AMARE) [7]: 100% | Pre-emergence action against Matricaria inodora (MATIN) [8]: 100% | Pre-emergence action against Stellaria media (STEME) (Stellaria media (STEME) [9]): 100%

Cc1ccc(Cc2ccc(F)cc2F)c(Oc2ncccn2)n1 [Example I-444]
Post-emergence action against Poa annua (POAAN) (Poa annua (POAAN) [2]): 100% | Post-emergence action against Stellaria media (STEME) (Stellaria media (STEME) [11]): 90% | Post-emergence action against Matricaria inodora (MATIN) [12]: 90% | Pre-emergence action against Lolium rigidum (LOLRI) (Lolium rigidum (LOLRI)): 90% | Pre-emergence action against Poa annua (POAAN) (Poa annua (POAAN) [5]): 100% | Pre-emergence action against Setaria viridis (SETVI) (Setaria viridis (SETVI)): 100% | Pre-emergence action against Amaranthus retroflexus (AMARE) [7]: 100% | Pre-emergence action against Matricaria inodora (MATIN) [8]: 100% | Pre-emergence action against Stellaria media (STEME) (Stellaria media (STEME) [9]): 100%

Cc1cc(C)c(Cc2ccccc2)c(Oc2ncc(F)cn2)n1 [Example I-478, 2-[(3-Benzyl-4,6-dimethyl-2-pyridyl)oxy]-5-fluoropyrimidine]
Post-emergence action against Echinochloa crus-galli (ECHCG) [1]: 90% | Post-emergence action against Poa annua (POAAN) (Poa annua (POAAN) [2]): 100% | Post-emergence action against Abutilon theophrasti (ABUTH) [3]: 100% | Post-emergence action against Amaranthus retroflexus (AMARE) [10]: 100% | Post-emergence action against Stellaria media (STEME) (Stellaria media (STEME) [11]): 100% | Post-emergence action against Matricaria inodora (MATIN) [12]: 90% | Pre-emergence action against Echinochloa crus-galli (ECHCG) [4]: 100% | Pre-emergence action against Lolium rigidum (LOLRI) (Lolium rigidum (LOLRI)): 100% | Pre-emergence action against Poa annua (POAAN) (Poa annua (POAAN) [5]): 100% | Pre-emergence action against Setaria viridis (SETVI) (Setaria viridis (SETVI)): 100% | Pre-emergence action against Abutilon theophrasti (ABUTH) [6]: 100% | Pre-emergence action against Amaranthus retroflexus (AMARE) [7]: 100% | Pre-emergence action against Matricaria inodora (MATIN) [8]: 100% | Pre-emergence action against Stellaria media (STEME) (Stellaria media (STEME) [9]): 100%

Cc1ccc(Oc2ccccc2)c(Oc2ncc(Cl)cn2)n1 [Example I-500]
Post-emergence action against Echinochloa crus-galli (ECHCG) [1]: 90% | Post-emergence action against Poa annua (POAAN) (Poa annua (POAAN) [2]): 100% | Post-emergence action against Abutilon theophrasti (ABUTH) [3]: 100% | Post-emergence action against Stellaria media (STEME) (Stellaria media (STEME) [11]): 100% | Pre-emergence action against Echinochloa crus-galli (ECHCG) [4]: 100% | Pre-emergence action against Lolium rigidum (LOLRI) (Lolium rigidum (LOLRI)): 100% | Pre-emergence action against Poa annua (POAAN) (Poa annua (POAAN) [5]): 100% | Pre-emergence action against Setaria viridis (SETVI) (Setaria viridis (SETVI)): 100% | Pre-emergence action against Abutilon theophrasti (ABUTH) [6]: 100% | Pre-emergence action against Amaranthus retroflexus (AMARE) [7]: 100% | Pre-emergence action against Matricaria inodora (MATIN) [8]: 90% | Pre-emergence action against Stellaria media (STEME) (Stellaria media (STEME) [9]): 100%
